{
  "source": "patent US10227344B2",
  "about": "“CK2 inhibitors, compositions and methods thereof” (Polaris Pharmaceuticals, Inc., priority 2016, dated 2019)",
  "format_in_all_cases": "cell-based",
  "key": {"SK-MEL-24": {"system": "SK-MEL-24", "assay": "Cancer cell panel, cell viability (resazurin): Melanoma, SK-MEL-24", "conditions": "SK-MEL-24 (Melanoma), 72 hours; labelled drug combined with Example 3", "method": "(§1) Cells were plated in 96-well plates and treated for 72 hours with a serially diluted CK2 inhibitor or anti-cancer drug or their combination. The suspension cell lines were treated right after plating, while the adherent cells were allowed to attach overnight prior to the start of the treatment.\n(§2) Cell viability was determined by adding resazurin to cell cultures and measuring fluorescence with a plate reader. Relative cell viability was calculated by dividing the cell viability signal from a test sample by that of a non-treated control. […] Bliss Independence and Highest Single Agent models were used to determine if there is synergy, additivity or antagonism between the CK2 inhibitor and an anti-cancer drug."}, "DLD-1": {"system": "DLD-1", "assay": "Cancer cell panel, cell viability (resazurin): Colon, DLD-1", "conditions": "DLD-1 (Colon), 72 hours; labelled drug combined with Example 3"}, "Caki-1": {"system": "Caki-1", "assay": "Cancer cell panel, cell viability (resazurin): Renal, Caki-1", "conditions": "Caki-1 (Renal), 72 hours; labelled drug combined with Example 3"}, "H460": {"system": "H460", "assay": "Cancer cell panel, cell viability (resazurin): NSCLC, H460", "conditions": "72 hours, labelled drug combined with Example 3", "method": "as §1, §2"}, "H2122": {"system": "H2122", "assay": "Cancer cell panel, cell viability (resazurin): NSCLC, H2122", "conditions": "72 hours, labelled drug combined with Example 3", "method": "as §1, §2"}, "MeWO": {"system": "MeWO", "assay": "Cancer cell panel, cell viability (resazurin): Melanoma, MeWO", "conditions": "72 hours, labelled drug combined with Example 3", "method": "as §1, §2"}, "T47D": {"system": "T47D", "assay": "Cancer cell panel, cell viability (resazurin): Breast, T47D", "conditions": "72 hours, labelled drug combined with Example 3"}, "EOL-1": {"system": "EOL-1", "assay": "Cancer cell panel, cell viability (resazurin): Leukemia, EOL-1", "conditions": "EOL-1 (Leukemia), 72 hours; labelled drug combined with Example 3", "method": "as §1, §2"}, "MDA-MB-453": {"system": "MDA-MB-453", "assay": "Cancer cell panel, cell viability (resazurin): Breast, MDA-MB-453", "conditions": "MDA-MB-453 (Breast), 72 hours; labelled drug combined with Example 3"}, "HCT116": {"system": "HCT116", "assay": "Cancer cell panel, cell viability (resazurin): Colon, HCT116", "conditions": "72 hours, labelled drug combined with Example 3", "method": "as §1, §2"}, "HL60": {"system": "HL60", "assay": "Cancer cell panel, cell viability (resazurin): Leukemia, HL60", "conditions": "72 hours, labelled drug combined with Example 3"}, "MDA-MB-157": {"system": "MDA-MB-157", "assay": "Cancer cell panel, cell viability (resazurin): Breast, MDA-MB-157", "conditions": "MDA-MB-157 (Breast), 72 hours; labelled drug combined with Example 3"}, "RPMI8226": {"system": "RPMI8226", "assay": "Cancer cell panel, cell viability (resazurin): multiple myeloma, RPMI8226", "conditions": "72 hours, labelled drug combined with Example 3"}, "Raji": {"system": "Raji", "assay": "Cancer cell panel, cell viability (resazurin): Burkitt's Lymphoma, Raji", "conditions": "72 hours, labelled drug combined with Example 3", "method": "as §1, §2"}, "A2780": {"system": "A2780", "assay": "Cancer cell panel, cell viability (resazurin): Ovarian, A2780", "conditions": "72 hours, labelled drug combined with Example 3", "method": "as §1, §2"}, "Ramos": {"system": "Ramos", "assay": "Cancer cell panel, cell viability (resazurin): Burkitt's Lymphoma, Ramos", "conditions": "72 hours, labelled drug combined with Example 3"}, "Caov-3": {"system": "Caov-3", "assay": "Cancer cell panel, cell viability (resazurin): Ovarian, Caov-3", "conditions": "Caov-3 (Ovarian), 72 hours; labelled drug combined with Example 3"}, "H1975": {"system": "H1975", "assay": "Cancer cell panel, cell viability (resazurin): NSCLC, H1975", "conditions": "72 hours, labelled drug combined with Example 3"}, "LnCap": {"system": "LnCap", "assay": "Cancer cell panel, cell viability (resazurin): Prostate, LnCap", "conditions": "72 hours, labelled drug combined with Example 3", "method": "as §1, §2"}, "786-O": {"system": "786-O", "assay": "Cancer cell panel, cell viability (resazurin): Renal, 786-O", "conditions": "786-O (Renal), 72 hours; labelled drug combined with Example 3"}, "MDA-MB-231": {"system": "MDA-MB-231", "assay": "Cancer cell panel, cell viability (resazurin): Breast, MDA-MB-231", "conditions": "MDA-MB-231 (Breast), 72 hours; labelled drug combined with Example 3", "method": "as §1, §2"}, "ACHN": {"system": "ACHN", "assay": "Cancer cell panel, cell viability (resazurin): Renal, ACHN", "conditions": "72 hours, labelled drug combined with Example 3", "method": "as §1, §2"}, "LoVo": {"system": "LoVo", "assay": "Cancer cell panel, cell viability (resazurin): Colon, LoVo", "conditions": "72 hours, labelled drug combined with Example 3"}, "BT-474": {"system": "BT-474", "assay": "Cancer cell panel, cell viability (resazurin): Breast, BT-474", "conditions": "BT-474 (Breast), 72 hours; labelled drug combined with Example 3"}, "H23": {"system": "H23", "assay": "Cancer cell panel, cell viability (resazurin): NSCLC, H23", "conditions": "72 hours, labelled drug combined with Example 3"}, "U87MG": {"system": "U87MG", "assay": "Cancer cell panel, cell viability (resazurin): Glioblastoma, U87MG", "conditions": "72 hours, labelled drug combined with Example 3"}, "MOLT4": {"system": "MOLT4", "assay": "Cancer cell panel, cell viability (resazurin): Leukemia, MOLT4", "conditions": "72 hours, labelled drug combined with Example 3"}, "U266": {"system": "U266", "assay": "Cancer cell panel, cell viability (resazurin): multiple myeloma, U266", "conditions": "72 hours, labelled drug combined with Example 3", "method": "as §1, §2"}, "WM-115": {"system": "WM-115", "assay": "Cancer cell panel, cell viability (resazurin): Melanoma, WM-115", "conditions": "WM-115 (Melanoma), 72 hours; labelled drug combined with Example 3"}},
  "data": [
    {"smiles": "O=c1[nH]cc(F)c(=O)[nH]1", "note": "[Example 5FU, 5-FU]", "values": [
      {"measurement": "synergy, additivity or antagonism of the combination of Example 3 with the anti-cancer drug", "setting": "SK-MEL-24", "result": "+ (Additive relative to each agent alone (CI = 0.9-1 by Bliss Independence Model and <0.9 by Highest Single Agent Model))"},
      {"measurement": "synergy, additivity or antagonism of the combination of Example 3 with the anti-cancer drug", "setting": "DLD-1", "result": "+ (Additive relative to each agent alone (CI = 0.9-1 by Bliss Independence Model and <0.9 by Highest Single Agent Model))"},
      {"measurement": "synergy, additivity or antagonism of the combination of Example 3 with the anti-cancer drug", "setting": "Caki-1", "result": "+ (Additive relative to each agent alone (CI = 0.9-1 by Bliss Independence Model and <0.9 by Highest Single Agent Model))"},
      {"measurement": "synergy, additivity or antagonism of the combination of Example 3 with the anti-cancer drug", "setting": "H460", "result": "+ + + (Synergy relative to each agent alone (CI = 0.4-0.74 by Bliss Independence Model))"},
      {"measurement": "synergy, additivity or antagonism of the combination of Example 3 with the anti-cancer drug", "setting": "H2122", "result": "+ (Additive relative to each agent alone (CI = 0.9-1 by Bliss Independence Model and <0.9 by Highest Single Agent Model))"},
      {"measurement": "synergy, additivity or antagonism of the combination of Example 3 with the anti-cancer drug", "setting": "MeWO", "result": "− (Slightly antagonistic relative to each agent alone (CI = 1.1-1.2 by Highest Single Agent Model))"},
      {"measurement": "synergy, additivity or antagonism of the combination of Example 3 with the anti-cancer drug", "setting": "T47D", "result": "+ (Additive relative to each agent alone (CI = 0.9-1 by Bliss Independence Model and <0.9 by Highest Single Agent Model))"},
      {"measurement": "synergy, additivity or antagonism of the combination of Example 3 with the anti-cancer drug", "setting": "EOL-1", "result": "+ (Additive relative to each agent alone (CI = 0.9-1 by Bliss Independence Model and <0.9 by Highest Single Agent Model))"},
      {"measurement": "synergy, additivity or antagonism of the combination of Example 3 with the anti-cancer drug", "setting": "MDA-MB-453", "result": "+ (Additive relative to each agent alone (CI = 0.9-1 by Bliss Independence Model and <0.9 by Highest Single Agent Model))"},
      {"measurement": "synergy, additivity or antagonism of the combination of Example 3 with the anti-cancer drug", "setting": "HCT116", "result": "+ + (Slight synergy relative to each agent alone (CI = 0.75-0.9 by Bliss Independence Model))"},
      {"measurement": "synergy, additivity or antagonism of the combination of Example 3 with the anti-cancer drug", "setting": "HL60", "result": "+ (Additive relative to each agent alone (CI = 0.9-1 by Bliss Independence Model and <0.9 by Highest Single Agent Model))"},
      {"measurement": "synergy, additivity or antagonism of the combination of Example 3 with the anti-cancer drug", "setting": "MDA-MB-157", "result": "+ + (Slight synergy relative to each agent alone (CI = 0.75-0.9 by Bliss Independence Model))"},
      {"measurement": "synergy, additivity or antagonism of the combination of Example 3 with the anti-cancer drug", "setting": "RPMI8226", "result": "+ (Additive relative to each agent alone (CI = 0.9-1 by Bliss Independence Model and <0.9 by Highest Single Agent Model))"},
      {"measurement": "synergy, additivity or antagonism of the combination of Example 3 with the anti-cancer drug", "setting": "Raji", "result": "+ (Additive relative to each agent alone (CI = 0.9-1 by Bliss Independence Model and <0.9 by Highest Single Agent Model))"},
      {"measurement": "synergy, additivity or antagonism of the combination of Example 3 with the anti-cancer drug", "setting": "A2780", "result": "+ + (Slight synergy relative to each agent alone (CI = 0.75-0.9 by Bliss Independence Model))"},
      {"measurement": "synergy, additivity or antagonism of the combination of Example 3 with the anti-cancer drug", "setting": "Ramos", "result": "+ + (Slight synergy relative to each agent alone (CI = 0.75-0.9 by Bliss Independence Model))"},
      {"measurement": "synergy, additivity or antagonism of the combination of Example 3 with the anti-cancer drug", "setting": "Caov-3", "result": "+ (Additive relative to each agent alone (CI = 0.9-1 by Bliss Independence Model and <0.9 by Highest Single Agent Model))"},
      {"measurement": "synergy, additivity or antagonism of the combination of Example 3 with the anti-cancer drug", "setting": "H1975", "result": "− − (Antagonistic relative to each agent alone (CI = 1.2-1.49 by Highest Single Agent Model))"},
      {"measurement": "synergy, additivity or antagonism of the combination of Example 3 with the anti-cancer drug", "setting": "LnCap", "result": "+ (Additive relative to each agent alone (CI = 0.9-1 by Bliss Independence Model and <0.9 by Highest Single Agent Model))"},
      {"measurement": "synergy, additivity or antagonism of the combination of Example 3 with the anti-cancer drug", "setting": "786-O", "result": "+ + + (Synergy relative to each agent alone (CI = 0.4-0.74 by Bliss Independence Model))"},
      {"measurement": "synergy, additivity or antagonism of the combination of Example 3 with the anti-cancer drug", "setting": "MDA-MB-231", "result": "+ (Additive relative to each agent alone (CI = 0.9-1 by Bliss Independence Model and <0.9 by Highest Single Agent Model))"},
      {"measurement": "synergy, additivity or antagonism of the combination of Example 3 with the anti-cancer drug", "setting": "ACHN", "result": "+ (Additive relative to each agent alone (CI = 0.9-1 by Bliss Independence Model and <0.9 by Highest Single Agent Model))"},
      {"measurement": "synergy, additivity or antagonism of the combination of Example 3 with the anti-cancer drug", "setting": "LoVo", "result": "+ (Additive relative to each agent alone (CI = 0.9-1 by Bliss Independence Model and <0.9 by Highest Single Agent Model))"},
      {"measurement": "synergy, additivity or antagonism of the combination of Example 3 with the anti-cancer drug", "setting": "BT-474", "result": "+ (Additive relative to each agent alone (CI = 0.9-1 by Bliss Independence Model and <0.9 by Highest Single Agent Model))"},
      {"measurement": "synergy, additivity or antagonism of the combination of Example 3 with the anti-cancer drug", "setting": "H23", "result": "+ (Additive relative to each agent alone (CI = 0.9-1 by Bliss Independence Model and <0.9 by Highest Single Agent Model))"},
      {"measurement": "synergy, additivity or antagonism of the combination of Example 3 with the anti-cancer drug", "setting": "U87MG", "result": "+ (Additive relative to each agent alone (CI = 0.9-1 by Bliss Independence Model and <0.9 by Highest Single Agent Model))"},
      {"measurement": "synergy, additivity or antagonism of the combination of Example 3 with the anti-cancer drug", "setting": "MOLT4", "result": "+ + (Slight synergy relative to each agent alone (CI = 0.75-0.9 by Bliss Independence Model))"},
      {"measurement": "synergy, additivity or antagonism of the combination of Example 3 with the anti-cancer drug", "setting": "U266", "result": "+ (Additive relative to each agent alone (CI = 0.9-1 by Bliss Independence Model and <0.9 by Highest Single Agent Model))"},
      {"measurement": "synergy, additivity or antagonism of the combination of Example 3 with the anti-cancer drug", "setting": "WM-115", "result": "+ (Additive relative to each agent alone (CI = 0.9-1 by Bliss Independence Model and <0.9 by Highest Single Agent Model))"}
    ]}
  ]
}
